Laboratory results taken from article PMC8879702, “Discovery of Small Molecule Activators of Chemokine Receptor CXCR4 That Improve Diabetic Wound Healing” (International Journal of Molecular Sciences, 2022).

What was measured:
miR-15b = miR-15b expression in human diabetic fibroblasts (real time qPCR); format: cell-based
Method: (§1) An additional secondary screen was performed to further validate the activity of UCUF-728 as a selective CXCR4 receptor modulator. Human diabetic and non-diabetic fibroblasts were cultured with increasing concentrations of the compound. The cells were incubated for 24 h and then total cellular RNA was isolated to examine the ability of the compound to correct the abnormal expression of miR-15b, and miR-29a. We have shown that human diabetic skin has an increased miR-15b expression at the baseline compared to non-diabetic skin [7].
(§2) CEM-CCRF cells (ATCC CCL-119) were cultured in growth media consisting of RPMI 1640 (Corning; Corning NY, USA) supplemented with 10% Fetal Bovine Serum (Corning; Corning, NY, USA), and 100 IU penicillin, […] streptomycin sulfate (Corning; Corning, NY, USA). Cells were maintained in suspension and subcultured twice weekly to maintain cell densities between 0.8 × 10^6 cells/mL and 2.5 × 10^6 cells/mL to maintain exponential growth phase. […]
(§3) Total RNA was extracted with TRIzol reagent (Invitrogen, Carlsbad, CA, USA) according to the manufacturer’s established protocol. […] Quantitative PCR was performed on a BIO-RAD CFX96 according to the manufacturer’s instructions. Quantitative values of genes of interest are normalized based on U6. […]

miR-29a = miR-29a expression in human diabetic fibroblasts (real time qPCR); format: cell-based; details: 24 h
Method: as §1, §2, §3

[1] = tested on: diabetic wounds in Db mice; experiment: full-thickness excisional 8 mm wound healing in diabetic Db mice; format: in vivo
Method: We examined the ability of our lead compound to improve diabetic wound healing in vivo. Full-thickness excisional 8 mm wounds were created in Db mice and were immediately treated with 10 µM UCUF-728 or PBS control. We monitored wound healing over the course of 22 days. Initial wound size was calculated immediately after wounding, and wound closure was assessed over time as the percentage of initial wound area. Figure 4A depicts the wound healing effect of UCUF-728 application on the excision wound model for sequential days following injury. […] The effect of UCUF-728 treatment on angiogenesis was assessed using immunohistochemistry for the endothelial marker CD31. Representative photos of immunoperoxidase staining for CD31 at 7 days in diabetic wounds treated with PBS or UCUF-728 are shown in Figure 4C.
All animal experiments were approved by the Institutional Animal Care and Use Committee at the University of Colorado Denver—Anschutz Medical Campus, and experimental protocols followed the guidelines described in the NIH Guide for the Care and Use of Laboratory Animals. In these experiments, we used 10-week-old, female, genetically diabetic C57BKS.Cg-m/Leprdb/J (Db) mice and heterozygous, non-diabetic (non-Db), age-matched female controls from the Jackson Laboratory (Bar Harbor, ME, USA). Mice were anesthetized with inhaled isoflurane. Each mouse was shaved and depilated before wounding. The dorsal skin was swabbed with alcohol and Betadine (Purdue Pharma, Stamford, CT, USA). Each mouse received a single, full-thickness dorsal wound (including panniculus carnosum) with an 8-mm punch biopsy (Miltex Inc., York, PA, USA). After wounding, a Hamilton syringe was used to deliver 50 μL of either 10 uM CAG1 or PBS, as a control. Ten […] were injected intradermally at 12, 3, 6 and 9 o’clock and at the wound base. All wounds were dressed with Tegaderm (3M, St. Paul, MN, USA), which was subsequently removed on postoperative day 2. Postoperatively, the mice received a subcutaneous injection of an analgesic, Banamine (Schering-Plough Animal Health Corp., Union, NJ, USA). A full-thickness skin sample, centered on the wound, was harvested 3 and 7 days after surgery (n = 5 per timepoint).

Question: What does the source list for `COc1ccc(OC)c(NS(=O)(=O)c2ccc(-c3cnc(C4CC4)o3)cc2)c1` [Compound 19]?
Answer: lowest concentration with potent suppression of miR-15b expression (miR-15b): 0.1 µM; miR-15b expression (miR-15b; 24 h): decreased the expression of miR-15b; miR-29a expression (miR-29a): significant decrease in the miR-29a expression level; time of full closure ([1]; Db mice, 8 mm wound, 10 µM intradermal at wounding, PBS 22 days): 14 days; wound surface area ([1]; Db wounds, post-injury day 6, vs PBS): decrease in the wound surface area; reduction of wound closure time ([1]; diabetic mice, vs PBS): 36%; number of vessels (CD31 staining) ([1]; diabetic wounds, 7 days, vs PBS): significant increase in the number of vessels
